As usually defined, the inhibition is the share of the control response that was lost under treatment. The low end stands for a weak effect, the high end for a strong effect.

In patent US20120270237A9, “METHODS FOR THE IDENTIFICATION OF KINASE INTERACTING MOLECULES AND FOR THE PURIFICATION OF KINASE PROTEINS” (Cellzone AG, priority 2009, published 2012) one finds inhibition data, which are given here for one compound.

For one experiment, the target named is T1, MAP3K5 (Homo sapiens, UniProt Q99683).
T1 sequence (Q99683 1-1374): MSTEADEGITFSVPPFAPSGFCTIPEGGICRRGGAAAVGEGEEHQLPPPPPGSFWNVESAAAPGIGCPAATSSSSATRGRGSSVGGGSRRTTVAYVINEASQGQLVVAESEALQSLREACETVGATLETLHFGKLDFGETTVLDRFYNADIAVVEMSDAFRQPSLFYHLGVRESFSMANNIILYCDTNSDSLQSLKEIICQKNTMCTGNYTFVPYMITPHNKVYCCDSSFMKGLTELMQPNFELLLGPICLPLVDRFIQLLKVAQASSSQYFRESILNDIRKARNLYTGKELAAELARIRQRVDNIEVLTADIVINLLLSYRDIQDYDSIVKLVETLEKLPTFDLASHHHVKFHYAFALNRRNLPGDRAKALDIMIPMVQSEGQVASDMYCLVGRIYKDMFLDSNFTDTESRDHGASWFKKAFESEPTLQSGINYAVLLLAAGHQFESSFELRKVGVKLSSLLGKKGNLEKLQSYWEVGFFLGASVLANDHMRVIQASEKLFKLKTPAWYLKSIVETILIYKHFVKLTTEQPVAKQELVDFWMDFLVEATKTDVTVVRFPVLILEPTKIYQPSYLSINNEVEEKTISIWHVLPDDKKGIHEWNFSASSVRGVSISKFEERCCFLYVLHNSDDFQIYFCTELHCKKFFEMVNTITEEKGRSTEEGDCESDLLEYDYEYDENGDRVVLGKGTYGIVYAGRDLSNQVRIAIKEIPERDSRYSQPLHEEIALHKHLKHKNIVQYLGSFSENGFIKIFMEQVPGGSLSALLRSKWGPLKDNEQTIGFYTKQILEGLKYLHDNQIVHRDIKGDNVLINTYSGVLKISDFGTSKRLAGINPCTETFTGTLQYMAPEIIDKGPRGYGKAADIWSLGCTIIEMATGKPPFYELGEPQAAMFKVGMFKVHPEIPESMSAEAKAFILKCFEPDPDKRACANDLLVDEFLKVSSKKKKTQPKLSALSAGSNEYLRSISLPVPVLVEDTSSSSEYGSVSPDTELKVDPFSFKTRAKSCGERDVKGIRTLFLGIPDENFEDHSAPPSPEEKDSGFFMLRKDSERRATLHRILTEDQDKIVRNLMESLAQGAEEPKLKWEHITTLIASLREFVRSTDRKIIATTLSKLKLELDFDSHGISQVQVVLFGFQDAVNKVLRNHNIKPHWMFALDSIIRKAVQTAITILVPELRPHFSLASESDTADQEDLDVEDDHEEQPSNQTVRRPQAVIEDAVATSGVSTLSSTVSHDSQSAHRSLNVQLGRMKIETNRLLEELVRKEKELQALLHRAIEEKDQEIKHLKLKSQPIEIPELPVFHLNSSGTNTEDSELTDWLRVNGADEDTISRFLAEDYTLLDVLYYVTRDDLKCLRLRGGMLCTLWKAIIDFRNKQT
The experiment is described as follows: Kinobeads competition binding, HL60 cell lysate. Also on record: endogenous in cells; host or cells: HL60 cell lysate. To be noted: 10 μM free compound. How it is done: (§1) To one aliquot of cell lysate 10 μM of the free compound (FIG. 3, CZC31326) was added and allowed to bind to proteins in the lysate. Then the affinity matrix with the immobilized compound (Example 1) was added to capture proteins that were not interacting with the previously added free compound. Beads were separated from the lysate and bead bound proteins were eluted in SDS sample buffer and subsequently separated by SDS-Polyacrylamide gel electrophoresis (FIG. 4). Suitable gel bands were cut out and subjected to in-gel proteolytic digestion with trypsin. The second lysate aliquot was processed identically, however no free compound was added (DMSO solvent control). Peptides originating from samples 1 and 2 were labeled with iTRAQ reagents (iTRAQ 114 and iTRAQ 117) and the combined samples were analyzed with a nano-flow liquid chromatography system coupled online to a tandem mass spectrometer (LC-MS/MS) experiment followed by iTRAQ reporter ion quantification in the MS/MS spectra (Ross et al., 2004. Mol. Cell. Proteomics 3(12):1154-1169). Further experimental protocols can be found in WO2006/134056 and a previous publication (Bantscheff et al., 2007. Nature Biotechnology 25, 1035-1044). Sepharose-beads with the immobilized compound (100 μl beads per pull-down experiment) were equilibrated in lysis buffer and incubated with a cell lysate sample containing 50 mg of protein on an end-over-end shaker (Roto Shake Genie, Scientific Industries Inc.) for 2 hours at 4° C. […] The iTRAQ reagents are a set of multiplexed, amine-specific, stable isotope reagents that can label peptides on amino groups in up to four different biological samples enabling simultaneous identification and quantitation of peptides. […] Relative protein quantitation was performed using peak areas of iTRAQ reporter ion signals essentially as described in an earlier publication (Bantscheff et al., 2007. Nature Biotechnology 25, 1035-1044).

The target in the next experiment is MARK2 (Homo sapiens, UniProt Q7KZI7). In words: Kinobeads competition binding, HL60 cell lysate. Set-up: endogenous in cells; host or cells: HL60 cell lysate. To be noted: 10 μM free compound. How it is done: as §1
Sequence of MARK2 (Q7KZI7 whole entry): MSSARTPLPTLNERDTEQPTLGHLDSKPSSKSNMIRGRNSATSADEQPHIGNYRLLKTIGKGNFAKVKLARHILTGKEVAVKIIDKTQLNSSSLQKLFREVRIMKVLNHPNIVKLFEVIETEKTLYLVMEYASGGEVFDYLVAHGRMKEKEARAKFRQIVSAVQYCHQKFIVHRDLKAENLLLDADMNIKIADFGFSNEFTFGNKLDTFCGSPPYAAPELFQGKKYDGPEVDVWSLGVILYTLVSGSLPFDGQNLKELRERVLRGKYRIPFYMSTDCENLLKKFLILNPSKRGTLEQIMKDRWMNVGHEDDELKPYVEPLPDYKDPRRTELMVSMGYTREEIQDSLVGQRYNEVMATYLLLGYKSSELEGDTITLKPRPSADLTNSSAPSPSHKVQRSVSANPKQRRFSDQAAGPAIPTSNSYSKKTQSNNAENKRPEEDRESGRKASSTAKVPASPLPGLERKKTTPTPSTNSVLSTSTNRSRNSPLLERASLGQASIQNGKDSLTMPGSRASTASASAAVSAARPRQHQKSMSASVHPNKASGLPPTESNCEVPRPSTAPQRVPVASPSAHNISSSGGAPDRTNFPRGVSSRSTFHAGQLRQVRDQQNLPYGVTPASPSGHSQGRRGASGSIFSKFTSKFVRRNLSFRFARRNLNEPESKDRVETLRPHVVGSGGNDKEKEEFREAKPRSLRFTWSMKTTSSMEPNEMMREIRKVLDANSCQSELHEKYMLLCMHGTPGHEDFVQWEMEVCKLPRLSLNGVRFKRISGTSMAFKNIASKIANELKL

On to `CS(=O)(=O)Nc1ccccc1Nc1nc(Nc2cccc(OCCN)c2)ncc1Cl` [CZC31326, N-(2-(2-(3-(2-aminoethoxy)phenylamino)-5-chloropyrimidin-4-ylamino)phenyl)methanesulfonamide], for which the inhibition at 10 µM at MAP3K5 was 88.4%; at MARK2, 97.1%.
